Measurements from patent US20060199819A1, “Inhibition of cyclooxygenase-2 activity” (Celgene Corporation, priority 2000, published 2006).

How the values were obtained:
cyclooxygenase-2 = assay: LPS-mediated induction of cyclooxygenase-2 in macrophages (RAW 264.7 cells); format: cell-based; details: macrophages in RAW 264.7 cells; as little as 50 μM
Text: (§1) Cyclooxygenase-2, the rate-limiting enzyme in prostaglandin biosynthesis, is expressed in tumor associated macrophages. Because prostaglandins, notable PGE2, are important mediators of inflammatory response and angiogenesis, inhibition of their biosynthesis can be used to combat these effects. Inhibition of the cyclooxygenase-2 protein by a test compound can be conveniently observed in cells in which induction of the protein has been induced by lipopolysaccharide (LPS). Thus it is known that LPS enhances cyclooxygenase-2 transcription and this effect thus can be used as convenient model for evaluating cyclooxygenase-2 inhibition.
(§2) In one experiment, LPS-mediated induction of cyclooxygenase-2, as well as PGE2 biosynthesis, in macrophages in RAW 264.7 cells was blocked by as little as 50 μM of 3-phthalimido-2,6-dioxopiperidine. It appears, however, that LPS-enhanced cyclooxy-genase-2 transcription is not itself effected by the amide or imide. That is, the amide or imide has no effect on the induction of cyclooxygenase-2 by LPS. On the other hand, the amide or imide enhances the degradation of cyclooxygenase-2 messenger RNA. Consequently while not wishing to be bound by any theory, it appears the inhibitory effect of the amide or imide operates on the activity of cyclooxygenase-2 by some post-transcriptional mechanism.

PGE2 biosynthesis = assay: LPS-mediated PGE2 biosynthesis in macrophages (RAW 264.7 cells); format: cell-based; details: macrophages in RAW 264.7 cells, as little as 50 μM
Text: as §1, §2

With O=C1CCC(N2C(=O)c3ccccc3C2=O)C(=O)N1 (centres unmarked) [3-phthalimido-2,6-dioxopiperidine] the “LPS-mediated induction of cyclooxygenase-2” value (cyclooxygenase-2) was “blocked” and the PGE2 biosynthesis (PGE2 biosynthesis) was “blocked”.
